These results are taken from patent publication US10258041B2, “Substituted pyrazolylpyrazole derivative and use of same as herbicide” (KYOYU AGRI CO., LTD., priority 2015, dated 2019).

Common to all, as to format: in vivo
For series [1], the system named is Digitaria ciliaris. The experiment in a line: Weed foliar treatment test (Test 4, higher leaf stage). The note with it: 10 g a.i./10a; foliar spray at 4.0 to 5.0 leaf stage of Digitaria ciliaris (plant height 10 cm to 15 cm); 20 days, 25° C. The method, then: (§1) Evaluation of herbicidal efficacy was carried out by comparing growth inhibition rate (%) with an untreated group, while evaluation of chemical damage was carried out by comparing growth inhibition rate (%) with the state of a complete eradication group, and were evaluated at 11 levels indicated below. • 0 (exponent): 0% to less than 10% (growth inhibition rate) • 1: 10% to less than 20% • 2: 20% to less than 30% • 3: 30% to less than 40% • 4: 40% to less than 50% • 5: 50% to less than 60% • 6: 60% to less than 70% • 7: 70% to less than 80% • 8: 80% to less than 90% • 9: 90% to less than 100% • 10: 100% Field soil was filled into a 1/4500 are pot followed by seeding with Digitaria ciliaris and Galinsoga parviflora, covering with soil and cultivating in a glass greenhouse at an average atmospheric temperature of 25° C. Wettable powders of Target Compound (I) shown, in Table 1 prepared in compliance with the preparation examples were diluted with water to the prescribed amount of chemical and uniformly sprayed onto the weeds using 100 liters of sprayed water per 10 are when Digitaria ciliaris had grown to the 4.0 to 5.0 leaf stage (plant height: 10 cm to 15 cm). After treating for 20 days in a glass greenhouse at an average atmospheric temperature of 25° C., the herbicidal efficacy thereof was investigated. Evaluation of herbicidal efficacy was carried out in the same manner as the above-mentioned Test Example 1.

In the next series the test system is Galinsoga parviflora. The description is as above. The note with it: 10 g a.i./10a; foliar spray at 4.0 to 5.0 leaf stage of Digitaria ciliaris; 20 days, 25° C. How it is done: as §1
Series [2] has as its system Digitaria ciliaris. Description: Farming soil treatment test. Conditions: soil surface spray prior to weed growth, 30 days, 30° C. The method, then:
(§2) Evaluation of herbicidal efficacy was carried out by comparing growth inhibition rate (%) with an untreated group, while evaluation of chemical damage was carried out by comparing growth inhibition rate (%) with the state of a complete eradication group, and were evaluated at 11 levels indicated below. • 0 (exponent): 0% to less than 10% (growth inhibition rate) • 1: 10% to less than 20% • 2: 20% to less than 30% • 3: 30% to less than 40% • 4: 40% to less than 50% • 5: 50% to less than 60% • 6: 60% to less than 70% • 7: 70% to less than 80% • 8: 80% to less than 90% • 9: 90% to less than 100% • 10: 100% Field soil was filled into a 1/6000 are pot followed by seeding with Digitaria ciliaris, Chenopodium album and Amraranthus retroflexus and covering with soil. Wettable powders of compounds of formula (I) shown in Table 1 prepared in compliance with the preparation examples were diluted with water to the prescribed amount of chemical and uniformly sprayed onto each soil surface layer using 100 liters of sprayed water per 10 are prior to weed growth following seeding. After treating for 30 days in a glass greenhouse at an average atmospheric temperature of 30° C., the herbicidal efficacy thereof was investigated. Evaluation of herbicidal efficacy was carried out in the same manner as the above-mentioned Test Example 1,

Series [3] relates to Chenopodium album. The experiment in a line: Farming soil treatment test. Conditions: soil surface spray prior to weed growth, 30 days, 30° C. The method, then:
as §2

For series [4], the system named is Amaranthus retroflexus. The experiment in a line: Farming soil treatment test. The note with it: soil surface spray prior to weed growth, 30 days, 30° C. The method, then:
as §2

Series [5] concerns Digitaria ciliaris. Description: Weed foliar treatment test (Test 3). The note with it: foliar spray at 1.0 to 2.0 leaf stage of Digitaria ciliaris, 3 weeks, 25° C. The method, then:
(§3) Evaluation of herbicidal efficacy was carried out by comparing growth inhibition rate (%) with an untreated group, while evaluation of chemical damage was carried out by comparing growth inhibition rate (%) with the state of a complete eradication group, and were evaluated at 11 levels indicated below. • 0 (exponent): 0% to less than 10% (growth inhibition rate) • 1: 10% to less than 20% • 2: 20% to less than 30% • 3: 30% to less than 40% • 4: 40% to less than 50% • 5: 50% to less than 60% • 6: 60% to less than 70% • 7: 70% to less than 80% • 8: 80% to less than 90% • 9: 90% to less than 100% • 10: 100% Soil was filled into a 1/6000 are pot followed by seeding with Digitaria ciliaris, Chenopodium album and Amaranthus retroflexus, covering with soil, and cultivating in a glass greenhouse at an average atmospheric temperature of 25° C. Wettable powders of Target Compound (I) shown in Table 1 prepared in compliance with the preparation examples were diluted with water to the prescribed amount of chemical and uniformly sprayed onto the weeds using 150 liters of sprayed water per 10 are when Digitaria ciliaris had grown to the 1.0 to 2.0 leaf stage. After treating for 3 weeks in a glass greenhouse at an average atmospheric temperature of 25° C., the herbicidal efficacy thereof was investigated. Evaluation of herbicidal efficacy was carried out in the same manner as the above-mentioned Test Example 1.

Series [6] has as its system Chenopodium album. The experiment in a line: Weed foliar treatment test (Test 3). Conditions: foliar spray at 1.0 to 2.0 leaf stage of Digitaria ciliaris, 3 weeks, 25° C. How it is done: as §3
Series [7] concerns Amaranthus retroflexus. The experiment in a line: Weed foliar treatment test (Test 3). The note with it: foliar spray at 1.0 to 2.0 leaf stage of Digitaria ciliaris, 3 weeks, 25° C. How it is done: as §3
In another series the test system is Oryza sativa. Description: Paddy herbicidal activity test, chemical damage to transplanted rice. The note with it: rice transplanted in 2.0 leaf stage, 30 days. The method, then: (§4) Rice paddy soil was filled into a 1/10000 are pot followed by the addition of suitable amounts of water and chemical fertilizer, kneading, seeding with Echinochloa crus-galli, Monochoria vaginalis and Scirpus juncoides and maintaining in an irrigated state at a water depth of 3 cm. Wettable powders of Target Compound (I) shown in Table 1 prepared in compliance with the preparation examples were diluted with a suitable amount of water, rice plants in the 2.0 leaf stage were transplanted during 3.5 leaf stage of Echinochloa crus-galli, and treated by dropping in chemical in the prescribed amount per 10 are using a pipette. After treating for 30 days in a glass greenhouse at an average atmospheric temperature of […], the herbicidal efficacy thereof was investigated. Evaluation of herbicidal efficacy was carried out by comparing growth inhibition rate (%) with an untreated group, while evaluation of chemical damage was carried out by comparing growth inhibition rate (%) with the state of a complete eradication group, and were evaluated at 11 levels indicated below. • 0 (exponent): 0% to less than 10% (growth inhibition rate) • 1: 10% to less than 20% • 2: 20% to less than 30% • 3: 30% to less than 40% • 4: 40% to less than 50% • 5: 50% to less than 60% • 6: 60% to less than 70% • 7: 70% to less than 80% • 8: 80% to less than 90% • 9: 90% to less than 100% • 10: 100%

In another series the test system is Scirpus juncoides. Description: Paddy herbicidal activity test. Conditions: irrigated pot, treated at 3.5 leaf stage of Echinochloa crus-galli, 30 days. How it is done:
as §4

A further series concerns Monochoria vaginalis. The experiment in a line: Paddy herbicidal activity test. The note with it: irrigated pot, treated at 3.5 leaf stage of Echinochloa crus-galli, 30 days. How it is done: as §4
A further series concerns Echinochloa crus-galli. Description: Paddy herbicidal activity test. The note with it: irrigated pot, treated at 3.5 leaf stage of Echinochloa crus-galli, 30 days. The method, then:
as §4

As for `CCC(=O)Nc1c(C#N)cnn1-c1nn2c(c1Cl)CCCC2` [Control Agent 4.187], the “herbicidal efficacy (growth inhibition rate level), Digitaria ciliaris” value in the series on Digitaria ciliaris [1] is reported as 2 (2: 20% to less than 30%); with Digitaria ciliaris [2] (5 g a.i./10a) it was 2 (2: 20% to less than 30%); in the series on Digitaria ciliaris [2] (10 g a.i./10a), 3 (3: 30% to less than 40%); with Digitaria ciliaris [5] (5 g a.i./10a) it was 2 (2: 20% to less than 30%); with Digitaria ciliaris [5] (10 g a.i./10a), 3 (3: 30% to less than 40%). Besides, in the series on Galinsoga parviflora, the “herbicidal efficacy (growth inhibition rate level), Galinsoga parviflora” value is on record as 3 (3: 30% to less than 40%). The “herbicidal efficacy (growth inhibition rate level), Chenopodium album” value is on record as 2 (2: 20% to less than 30%) in the series with Chenopodium album [3] (5 g a.i./10a), 3 (3: 30% to less than 40%) in the series on Chenopodium album [3] (10 g a.i./10a), 2 (2: 20% to less than 30%) in the series on Chenopodium album [6] (5 g a.i./10a) and 3 (3: 30% to less than 40%) in the series on Chenopodium album [6] (10 g a.i./10a). Also, the “herbicidal efficacy (growth inhibition rate level), Amaranthus retroflexus” value with Amaranthus retroflexus [4] (5 g a.i./10a) is on record as 4 (4: 40% to less than 50%); with Amaranthus retroflexus [4] (10 g a.i./10a), 5 (5: 50% to less than 60%); in the series with Amaranthus retroflexus [7] (5 g a.i./10a), 5 (5: 50% to less than 60%); in the series with Amaranthus retroflexus [7] (10 g a.i./10a), 6 (6: 60% to less than 70%). For the same compound, the “chemical damage (growth inhibition rate level), Oryza sativa” value in the series on Oryza sativa (1 g a.i./10a) was 1 (1: 10% to less than 20%); in the series with Oryza sativa (5 g a.i./10a), 2 (2: 20% to less than 30%). The “herbicidal efficacy (growth inhibition rate level), Scirpus juncoides” value is on record as 0 (0 (exponent): 0% to less than 10% (growth inhibition rate)) in the series with Scirpus juncoides (1 g a.i./10a) and 1 (1: 10% to less than 20%) in the series with Scirpus juncoides (5 g a.i./10a). The “herbicidal efficacy (growth inhibition rate level), Monochoria vaginalis” value with Monochoria vaginalis (1 g a.i./10a) and in the series on Monochoria vaginalis (5 g a.i./10a) was 3 (3: 30% to less than 40%) throughout. Further, the “herbicidal efficacy (growth inhibition rate level), Echinochloa crus-galli” value is on record as 2 (2: 20% to less than 30%) in the series with Echinochloa crus-galli (1 g a.i./10a) and 3 (3: 30% to less than 40%) in the series on Echinochloa crus-galli (5 g a.i./10a).
